# Experimental data as given in ChEMBL document CHEMBL1201862, “PubChem BioAssay data set” (2004).
# Active and inactive are the calls of the source. Unless noted, no cut-off for these calls is given here.
# Legend:
# Cytochrome P450 2D6 = Cytochrome P450 2D6 (Homo sapiens, UniProt P10635);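 note: CYP2D6 member of a cytochrome P450 panel assay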
# [1] = toxicity toward cultured mammalian cells – cell-based, plate reader, cherry-pick samples, cytotoxicity control, dose response (AID 504397); type: functional
# [2] = molecular target: T1, Type-1 angiotensin II receptor (Homo sapiens, UniProt P30556); test: antagonism of angiotensin II type 1 receptor – cell-based, uHTS hits, selectivity assay for APJ receptor antagonist project, dose response (AID 463214); type: functional;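 note: antagonist potency against angiotensin II stimulated AT1 response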
# T1 sequence (P30556 whole entry): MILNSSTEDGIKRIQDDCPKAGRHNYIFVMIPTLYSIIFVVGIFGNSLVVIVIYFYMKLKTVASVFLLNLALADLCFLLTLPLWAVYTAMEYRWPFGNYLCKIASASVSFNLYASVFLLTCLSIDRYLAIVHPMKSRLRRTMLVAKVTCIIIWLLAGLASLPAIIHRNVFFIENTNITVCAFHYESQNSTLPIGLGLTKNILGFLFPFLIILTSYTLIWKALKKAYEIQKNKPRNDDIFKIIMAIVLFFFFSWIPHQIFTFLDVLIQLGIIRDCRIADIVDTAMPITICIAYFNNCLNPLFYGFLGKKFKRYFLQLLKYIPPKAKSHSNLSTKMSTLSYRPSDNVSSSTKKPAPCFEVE
# [3] = molecular target: Alkaline phosphatase, tissue-nonspecific isozyme (Homo sapiens, UniProt P05186); test: inhibition of tissue-nonspecific alkaline phosphatase – biochemical, dose response (AID 488882); type: functional
# [4] = molecular target: UDP-galactopyranose mutase (Mycobacterium tuberculosis, UniProt P9WIQ1); test: Inhibitors of Mycobacterium tuberculosis UDP-galactopyranose mutase (UGM) enzyme Measured in Biochemical System Using Plate Reader - 2105-02_Inhibitor_Dose_CherryPick_Activity. [Related pubchem assays (depositor defined):AID504439]
# Chain of UDP-galactopyranose mutase (P9WIQ1 whole entry): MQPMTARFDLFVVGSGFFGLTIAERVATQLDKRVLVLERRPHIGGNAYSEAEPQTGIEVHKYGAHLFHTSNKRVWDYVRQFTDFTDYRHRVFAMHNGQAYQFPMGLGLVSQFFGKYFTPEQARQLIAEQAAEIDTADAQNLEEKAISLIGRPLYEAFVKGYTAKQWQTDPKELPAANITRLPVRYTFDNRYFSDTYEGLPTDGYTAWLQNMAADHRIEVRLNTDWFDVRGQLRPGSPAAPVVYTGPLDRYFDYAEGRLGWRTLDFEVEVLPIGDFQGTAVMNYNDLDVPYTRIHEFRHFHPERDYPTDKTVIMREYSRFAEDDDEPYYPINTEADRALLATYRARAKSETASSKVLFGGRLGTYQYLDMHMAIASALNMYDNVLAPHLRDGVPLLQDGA
# [5] = molecular target: T2, Intestinal-type alkaline phosphatase (Homo sapiens, UniProt P09923); test: inhibition of human intestinal alkaline phosphatase – biochemical, luminescent, uHTS hits, set 2, dose response (AID 488793); type: functional
# T2 sequence (P09923 whole entry): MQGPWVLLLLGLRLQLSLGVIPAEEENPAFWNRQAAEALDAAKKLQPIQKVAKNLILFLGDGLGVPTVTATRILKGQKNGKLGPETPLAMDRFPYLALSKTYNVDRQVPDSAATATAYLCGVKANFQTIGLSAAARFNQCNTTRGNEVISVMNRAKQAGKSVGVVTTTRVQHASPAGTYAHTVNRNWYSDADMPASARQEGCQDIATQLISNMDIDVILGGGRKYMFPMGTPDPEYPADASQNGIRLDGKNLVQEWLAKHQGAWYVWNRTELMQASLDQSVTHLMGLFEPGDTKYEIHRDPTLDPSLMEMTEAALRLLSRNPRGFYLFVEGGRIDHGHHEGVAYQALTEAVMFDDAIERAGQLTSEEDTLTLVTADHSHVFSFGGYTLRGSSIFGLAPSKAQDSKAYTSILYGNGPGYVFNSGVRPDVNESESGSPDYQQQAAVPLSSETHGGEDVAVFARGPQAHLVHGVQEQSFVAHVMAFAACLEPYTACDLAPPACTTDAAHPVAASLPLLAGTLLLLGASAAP
# Beta-galactosidase = Beta-galactosidase (Escherichia coli, UniProt Q8VNN2); test: PubChem AID 485352; type: functional
# [6] = molecular target: T2, Intestinal-type alkaline phosphatase; test: Dose Response confirmation of uHTS hits from a small molecule inhibitors of human intestinal alkaline phosphatase via a luminescent assay. [Related pubchem assays (depositor defined):AID2544, AID2574]; type: functional
# [7] = molecular target: Intestinal-type alkaline phosphatase (Mus musculus, UniProt P24822); test: PubChem AID 488874; type: functional
# Chain of Intestinal-type alkaline phosphatase (Mus musculus, UniProt P24822) (P24822 whole entry): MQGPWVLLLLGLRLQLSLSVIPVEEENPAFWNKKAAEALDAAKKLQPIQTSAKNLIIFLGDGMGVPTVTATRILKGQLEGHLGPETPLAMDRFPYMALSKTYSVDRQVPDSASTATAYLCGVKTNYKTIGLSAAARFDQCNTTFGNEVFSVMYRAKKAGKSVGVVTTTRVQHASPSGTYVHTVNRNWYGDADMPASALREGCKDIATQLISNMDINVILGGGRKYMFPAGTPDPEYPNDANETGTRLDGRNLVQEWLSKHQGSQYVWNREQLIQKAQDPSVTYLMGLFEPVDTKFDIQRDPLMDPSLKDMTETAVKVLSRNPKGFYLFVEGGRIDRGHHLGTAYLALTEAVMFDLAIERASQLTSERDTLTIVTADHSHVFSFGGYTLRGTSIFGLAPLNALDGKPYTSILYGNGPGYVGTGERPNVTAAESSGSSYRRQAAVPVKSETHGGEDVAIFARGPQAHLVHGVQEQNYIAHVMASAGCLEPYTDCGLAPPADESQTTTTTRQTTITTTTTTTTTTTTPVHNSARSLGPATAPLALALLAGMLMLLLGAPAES
# [8] = molecular target: Lysine-specific demethylase 4C (Homo sapiens, UniProt Q9H3R0); test: inhibition of JMJD2C H3K9me3 demethylation – biochemical, DELFIA europium, cherry-picked samples, dose response (AID 488835); type: functional
# [9] = molecular target: T3, Tyrosine-protein phosphatase non-receptor type 22 (Homo sapiens, UniProt Q9Y2R2); type: functional
# T3 sequence (Q9Y2R2 whole entry): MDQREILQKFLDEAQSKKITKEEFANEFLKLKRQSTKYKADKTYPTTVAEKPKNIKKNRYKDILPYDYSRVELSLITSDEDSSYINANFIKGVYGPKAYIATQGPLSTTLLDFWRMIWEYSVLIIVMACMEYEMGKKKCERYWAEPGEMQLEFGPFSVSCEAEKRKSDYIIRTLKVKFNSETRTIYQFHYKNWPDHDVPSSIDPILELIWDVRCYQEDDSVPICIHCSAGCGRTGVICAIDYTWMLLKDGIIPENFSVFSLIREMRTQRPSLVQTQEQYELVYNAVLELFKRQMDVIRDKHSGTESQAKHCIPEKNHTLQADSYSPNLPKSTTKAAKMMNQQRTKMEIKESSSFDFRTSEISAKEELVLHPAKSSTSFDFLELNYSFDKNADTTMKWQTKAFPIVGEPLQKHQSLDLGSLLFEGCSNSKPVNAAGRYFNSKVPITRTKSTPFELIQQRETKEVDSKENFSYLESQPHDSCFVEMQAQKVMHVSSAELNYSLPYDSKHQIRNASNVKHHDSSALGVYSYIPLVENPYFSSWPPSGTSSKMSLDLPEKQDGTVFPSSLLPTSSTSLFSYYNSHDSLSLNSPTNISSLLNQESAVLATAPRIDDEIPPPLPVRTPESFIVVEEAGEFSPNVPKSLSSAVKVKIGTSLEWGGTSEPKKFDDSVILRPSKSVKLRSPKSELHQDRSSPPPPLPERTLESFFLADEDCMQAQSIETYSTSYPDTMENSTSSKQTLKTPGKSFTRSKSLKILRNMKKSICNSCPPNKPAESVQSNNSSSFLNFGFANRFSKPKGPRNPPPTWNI
# [10] = molecular target: T3, Tyrosine-protein phosphatase non-receptor type 22; type: functional; remark: listed apart in the source
# [11] = molecular target: T4, Tyrosine-protein phosphatase non-receptor type 7 (Homo sapiens, UniProt P35236); type: functional
# T4 sequence (P35236 whole entry): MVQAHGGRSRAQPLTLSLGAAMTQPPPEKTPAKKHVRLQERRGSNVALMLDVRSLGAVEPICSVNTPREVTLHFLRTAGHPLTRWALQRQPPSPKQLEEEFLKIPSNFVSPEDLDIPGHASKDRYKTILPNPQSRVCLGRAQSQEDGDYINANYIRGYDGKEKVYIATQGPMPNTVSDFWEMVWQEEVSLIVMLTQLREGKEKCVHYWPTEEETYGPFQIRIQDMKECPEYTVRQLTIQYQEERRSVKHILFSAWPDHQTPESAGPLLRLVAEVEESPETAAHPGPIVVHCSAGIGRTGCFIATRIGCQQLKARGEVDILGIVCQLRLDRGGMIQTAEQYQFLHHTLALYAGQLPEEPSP
# [12] = molecular target: T5, Peroxisome proliferator-activated receptor gamma (Homo sapiens, UniProt P37231); test: PPARg transcriptional activation, reporter cells – cell-based, luminescence, assay provider, dose response (AID 504447); type: functional
# T5 sequence (P37231 whole entry): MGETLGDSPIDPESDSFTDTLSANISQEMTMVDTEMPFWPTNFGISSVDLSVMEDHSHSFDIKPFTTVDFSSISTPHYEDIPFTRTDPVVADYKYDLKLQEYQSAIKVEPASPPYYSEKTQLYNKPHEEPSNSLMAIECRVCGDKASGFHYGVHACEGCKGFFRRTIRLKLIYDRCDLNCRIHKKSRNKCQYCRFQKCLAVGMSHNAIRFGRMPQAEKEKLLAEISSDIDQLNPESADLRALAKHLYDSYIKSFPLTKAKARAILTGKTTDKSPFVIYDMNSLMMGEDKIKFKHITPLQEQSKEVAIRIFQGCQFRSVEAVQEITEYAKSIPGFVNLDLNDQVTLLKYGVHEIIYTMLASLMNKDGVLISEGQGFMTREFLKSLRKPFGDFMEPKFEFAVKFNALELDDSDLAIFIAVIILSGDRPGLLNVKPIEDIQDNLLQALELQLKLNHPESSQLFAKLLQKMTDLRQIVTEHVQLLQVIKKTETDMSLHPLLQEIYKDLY
# [13] = molecular target: ATP-dependent molecular chaperone HSP82 (Candida albicans (strain WO-1) (Yeast), UniProt C4YTQ8); test: steroid-induced GRE reporter decrease in yeast – S. cerevisiae, luminescence, Hsp90 inhibitor project, dose response (AID 2400); type: functional, cell-based;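 note: beta-galactosidase luminescence from glucocorticoid response element reporter as proxy for Hsp90 function; inhibitor potency where signal loss means Hsp90 inhibition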
# [14] = molecular target: T6, Serine/threonine-protein phosphatase (Candida dubliniensis (strain CD36 / CBS 7987 / NCPF 3949 / NRRLY-17841) (Yeast), UniProt B9W6M3); test: blockers of CaCl2-induced CDRE-lacZ signaling – S. cerevisiae, luminescence, secondary, dose response (AID 2388); type: functional, cell-based;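 note: yeast reporter cells carrying a calcineurin-responsive lacZ construct stimulated with calcium chloride; luminescent beta-galactosidase reporter signal in whole cells rather than isolated phosphatase activity; potency for inhibition where a drop in reporter signal means calcineurin blockade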
# T6 sequence (B9W6M3 whole entry): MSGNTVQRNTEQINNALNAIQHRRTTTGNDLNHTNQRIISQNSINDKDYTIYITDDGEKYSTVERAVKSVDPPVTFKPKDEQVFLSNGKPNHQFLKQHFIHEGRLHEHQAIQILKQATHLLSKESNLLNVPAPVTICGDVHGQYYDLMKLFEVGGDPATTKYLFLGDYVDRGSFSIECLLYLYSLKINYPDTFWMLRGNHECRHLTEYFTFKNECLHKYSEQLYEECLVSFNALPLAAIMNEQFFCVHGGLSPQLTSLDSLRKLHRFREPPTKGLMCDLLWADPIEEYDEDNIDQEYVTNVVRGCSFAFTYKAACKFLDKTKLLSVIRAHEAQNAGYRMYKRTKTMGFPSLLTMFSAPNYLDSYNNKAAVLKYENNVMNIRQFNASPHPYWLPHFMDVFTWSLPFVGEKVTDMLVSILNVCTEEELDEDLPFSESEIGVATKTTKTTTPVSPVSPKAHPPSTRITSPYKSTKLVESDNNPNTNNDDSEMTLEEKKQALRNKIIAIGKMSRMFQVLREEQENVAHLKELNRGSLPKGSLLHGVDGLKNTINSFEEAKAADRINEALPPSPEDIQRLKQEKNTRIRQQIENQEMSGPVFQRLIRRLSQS
# [15] = NIH-3T3 fibroblast cytotoxicity, dose response, cytotoxicity control, cell-based, fluorescence, Alamar Blue, secondary assay (AID 2327); type: functional;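 note: NIH-3T3 mouse fibroblasts cultured with fluconazole at 8 µg/mL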
# [16] = molecular target: T5, Peroxisome proliferator-activated receptor gamma; test: competitive ligand displacement at PPARg – biochemical, fluorescence polarization, PolarScreen, PPARg partial agonist project, dose response (AID 504453)
# [17] = fluconazole-exposed Candida albicans growth modulators – fluorescence, retest, confirmation (AID 2467); type: functional, cell-based
# [18] = molecular target: T5, Peroxisome proliferator-activated receptor gamma; test: competitive ligand displacement at PPARg – biochemical, TR-FRET, LanthaScreen, PPARg partial agonist project, dose response (AID 504446)
# [19] = molecular target: T7, Delta-type opioid receptor (Homo sapiens, UniProt P41143); test: SAR Analysis of Antagonists of the DOR Receptor using an Image-Based Assay - Set 2. [Related pubchem assays (depositor defined):AID1777, AID1785, AID1786, AID1966, AID2133, AID2136, AID2284, AID2285, AID2357]; type: functional
# T7 sequence (P41143 whole entry): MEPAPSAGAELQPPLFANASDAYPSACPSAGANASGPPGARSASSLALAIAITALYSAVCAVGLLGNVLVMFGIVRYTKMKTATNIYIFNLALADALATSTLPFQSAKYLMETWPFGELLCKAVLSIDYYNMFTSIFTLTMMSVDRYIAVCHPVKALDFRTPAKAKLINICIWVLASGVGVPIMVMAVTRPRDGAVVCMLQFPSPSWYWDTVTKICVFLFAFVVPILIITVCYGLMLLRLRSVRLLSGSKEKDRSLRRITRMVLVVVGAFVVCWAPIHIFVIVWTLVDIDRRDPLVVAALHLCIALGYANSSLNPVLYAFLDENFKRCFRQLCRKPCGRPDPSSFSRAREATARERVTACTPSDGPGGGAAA
# [20] = molecular target: T7, Delta-type opioid receptor; test: SAR Analysis of Agonists of the DOR Receptor using an Image-Based Assay - Set 2. [Related pubchem assays (depositor defined):AID1777, AID1785, AID1786, AID1966, AID2133, AID2136, AID2284, AID2285, AID2370]; type: functional
# [21] = molecular target: T8, Kappa-type opioid receptor (Homo sapiens, UniProt P41145); test: SAR analysis of small molecule agonists of the kappa opioid receptor via a luminescent beta-arrestin assay - Set 2. [Related pubchem assays (depositor defined):AID1777, AID1785, AID1786, AID1966, AID2133, AID2136, AID2284, AID449737]; type: functional
# T8 sequence (P41145 whole entry): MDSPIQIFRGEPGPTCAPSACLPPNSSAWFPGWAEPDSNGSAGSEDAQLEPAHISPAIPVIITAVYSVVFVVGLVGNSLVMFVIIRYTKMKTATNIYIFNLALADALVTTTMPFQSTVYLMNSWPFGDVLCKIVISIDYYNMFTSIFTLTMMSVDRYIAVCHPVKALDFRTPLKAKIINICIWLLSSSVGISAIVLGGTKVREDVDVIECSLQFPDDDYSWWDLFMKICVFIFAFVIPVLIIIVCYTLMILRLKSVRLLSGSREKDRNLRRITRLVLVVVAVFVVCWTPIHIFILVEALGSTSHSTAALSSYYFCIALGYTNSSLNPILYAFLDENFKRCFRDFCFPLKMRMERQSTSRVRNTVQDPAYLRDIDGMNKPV
# [22] = molecular target: T8, Kappa-type opioid receptor; test: SAR analysis of Antagonists of the Kappa Opioid Receptor (KOR) using an Image-Based Assay - Set 2. [Related pubchem assays (depositor defined):AID1777, AID1785, AID1786, AID1966, AID2133, AID2136, AID2284, AID2285, AID2348]; type: functional
# Mu-type opioid receptor [23] = molecular target: T9, Mu-type opioid receptor (Homo sapiens, UniProt P35372); test: SAR Analysis of Agonists of the MOR Receptor using an Image-Based Assay - Set 2. [Related pubchem assays (depositor defined):AID1777, AID1785, AID1786, AID1966, AID2133, AID2136, AID2284, AID2285, AID2352]; type: functional
# T9 sequence (P35372 whole entry): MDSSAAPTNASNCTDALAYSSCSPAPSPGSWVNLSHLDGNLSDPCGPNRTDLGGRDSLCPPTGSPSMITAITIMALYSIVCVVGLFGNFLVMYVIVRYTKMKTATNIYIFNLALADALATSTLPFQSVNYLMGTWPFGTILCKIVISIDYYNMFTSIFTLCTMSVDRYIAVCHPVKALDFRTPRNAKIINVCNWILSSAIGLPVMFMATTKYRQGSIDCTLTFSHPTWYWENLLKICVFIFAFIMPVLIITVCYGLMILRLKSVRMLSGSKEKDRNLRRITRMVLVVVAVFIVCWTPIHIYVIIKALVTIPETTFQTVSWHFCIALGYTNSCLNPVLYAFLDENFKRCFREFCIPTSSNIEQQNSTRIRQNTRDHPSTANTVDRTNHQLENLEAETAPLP
# [24] = molecular target: T8, Kappa-type opioid receptor; test: SAR analysis of Agonists of the Kappa Opioid Receptor (KOR) using an Image-Based Assay - Set 2. [Related pubchem assays (depositor defined):AID1777, AID1786, AID1966, AID2133, AID2136, AID2284, AID2285, AID2359]; type: functional
# Mu-type opioid receptor [25] = molecular target: T9, Mu-type opioid receptor; test: SAR Analysis of Antagonists of the MOR Receptor using an Image-Based Assay - Set 2. [Related pubchem assays (depositor defined):AID1777, AID1785, AID1786, AID1966, AID2133, AID2136, AID2284, AID2285, AID2420]; type: functional
# [26] = molecular target: T8, Kappa-type opioid receptor; test: kappa opioid receptor blockade potency – cell-based, luminescence, set 2, SAR follow-up (AID 2495); type: functional
# [27] = molecular target: Voltage-dependent T-type calcium channel subunit alpha-1H (Homo sapiens, UniProt O95180); test: human CACNA1H calcium influx blockade – cell-based, synthetic library set 2, HEK293 HH8, Fluo-4, SAR follow-up (AID 493023); type: functional
# Chain of Voltage-dependent T-type calcium channel subunit alpha-1H (O95180 whole entry): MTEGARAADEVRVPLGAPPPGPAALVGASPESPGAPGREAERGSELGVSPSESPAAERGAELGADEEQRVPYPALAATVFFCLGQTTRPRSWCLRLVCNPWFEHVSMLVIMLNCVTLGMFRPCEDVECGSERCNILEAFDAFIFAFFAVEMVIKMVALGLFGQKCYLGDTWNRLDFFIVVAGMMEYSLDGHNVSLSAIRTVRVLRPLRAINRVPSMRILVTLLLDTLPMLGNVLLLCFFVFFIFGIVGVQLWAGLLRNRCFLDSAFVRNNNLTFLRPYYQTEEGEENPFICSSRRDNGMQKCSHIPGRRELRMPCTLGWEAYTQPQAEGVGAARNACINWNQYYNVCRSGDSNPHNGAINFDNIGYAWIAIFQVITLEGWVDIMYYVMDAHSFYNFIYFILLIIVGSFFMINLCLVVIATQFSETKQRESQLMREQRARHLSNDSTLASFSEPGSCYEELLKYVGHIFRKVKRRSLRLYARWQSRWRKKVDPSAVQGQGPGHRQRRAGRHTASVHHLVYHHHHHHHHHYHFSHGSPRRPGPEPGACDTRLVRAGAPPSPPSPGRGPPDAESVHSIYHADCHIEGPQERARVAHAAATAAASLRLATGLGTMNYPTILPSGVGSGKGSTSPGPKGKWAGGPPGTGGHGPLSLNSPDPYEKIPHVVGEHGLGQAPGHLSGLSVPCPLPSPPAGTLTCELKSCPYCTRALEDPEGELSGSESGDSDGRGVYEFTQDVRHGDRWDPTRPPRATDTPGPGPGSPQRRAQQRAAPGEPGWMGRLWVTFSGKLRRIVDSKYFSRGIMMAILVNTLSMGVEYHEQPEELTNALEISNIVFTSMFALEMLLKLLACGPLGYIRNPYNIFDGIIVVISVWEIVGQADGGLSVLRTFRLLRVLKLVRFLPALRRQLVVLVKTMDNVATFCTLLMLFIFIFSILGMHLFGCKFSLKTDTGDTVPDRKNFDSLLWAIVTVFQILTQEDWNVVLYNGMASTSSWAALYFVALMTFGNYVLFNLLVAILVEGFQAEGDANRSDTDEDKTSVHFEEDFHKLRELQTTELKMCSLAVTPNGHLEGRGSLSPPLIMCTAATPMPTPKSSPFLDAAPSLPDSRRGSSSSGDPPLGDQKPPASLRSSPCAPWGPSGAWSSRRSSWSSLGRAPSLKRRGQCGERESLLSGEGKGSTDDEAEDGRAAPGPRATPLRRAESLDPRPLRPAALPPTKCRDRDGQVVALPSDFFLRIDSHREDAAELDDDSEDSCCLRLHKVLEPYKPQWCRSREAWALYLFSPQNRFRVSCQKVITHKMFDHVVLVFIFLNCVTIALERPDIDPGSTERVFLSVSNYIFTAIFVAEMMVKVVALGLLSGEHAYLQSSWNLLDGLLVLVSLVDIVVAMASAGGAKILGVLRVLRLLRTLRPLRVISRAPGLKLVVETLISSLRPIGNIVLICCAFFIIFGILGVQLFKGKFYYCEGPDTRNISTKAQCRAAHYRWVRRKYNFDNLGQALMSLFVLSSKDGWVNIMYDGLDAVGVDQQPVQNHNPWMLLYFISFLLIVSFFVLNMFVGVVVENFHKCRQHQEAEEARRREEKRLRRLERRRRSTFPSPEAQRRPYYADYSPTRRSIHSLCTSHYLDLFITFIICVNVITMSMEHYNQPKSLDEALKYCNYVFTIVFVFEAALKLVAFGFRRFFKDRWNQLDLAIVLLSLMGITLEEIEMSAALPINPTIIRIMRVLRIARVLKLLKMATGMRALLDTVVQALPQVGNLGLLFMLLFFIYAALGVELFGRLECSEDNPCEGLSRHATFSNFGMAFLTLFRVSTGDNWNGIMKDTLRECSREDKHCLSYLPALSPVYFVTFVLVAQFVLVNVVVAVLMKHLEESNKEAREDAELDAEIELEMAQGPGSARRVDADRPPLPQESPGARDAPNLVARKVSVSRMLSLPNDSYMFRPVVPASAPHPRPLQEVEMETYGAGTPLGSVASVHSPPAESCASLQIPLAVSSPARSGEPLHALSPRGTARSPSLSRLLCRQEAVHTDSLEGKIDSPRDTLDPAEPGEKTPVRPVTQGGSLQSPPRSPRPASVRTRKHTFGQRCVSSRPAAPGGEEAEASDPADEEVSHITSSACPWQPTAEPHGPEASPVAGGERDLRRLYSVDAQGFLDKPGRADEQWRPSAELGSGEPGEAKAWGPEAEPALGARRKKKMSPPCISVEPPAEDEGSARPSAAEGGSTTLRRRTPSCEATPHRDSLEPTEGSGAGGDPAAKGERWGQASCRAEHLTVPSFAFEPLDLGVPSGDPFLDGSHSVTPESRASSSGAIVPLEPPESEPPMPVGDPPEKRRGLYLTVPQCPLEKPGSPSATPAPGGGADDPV
structure (smiles),measurement,setting,value
O=C(O)C1(C(=O)O)CCN(S(=O)(=O)c2ccccc2)CC1,AC50,Cytochrome P450 2D6,inconclusive
COc1ccc(CCN(C)C(=O)c2ccc(S(=O)(=O)Nc3ccccc3C)cc2)cc1OC,AC50,[1],> 350 µM (inactive)
CN(C)c1ccc2nc3c(=O)[nH]c(=O)nc-3n(CC(O)C(O)C(O)CO)c2c1 (centres undefined),IC50,[2],29.1 µM (not active)
same,IC50,[3],33 µM (active)
same,AC50,[4],> 500 µM (inactive)
same,IC50,[5],34 µM (active)
same,EC50,Beta-galactosidase,> 40 µM (inactive)
same,IC50,[6],14.7 µM (inactive)
same,IC50,[7],30.8 µM (active)
CC(=O)Nc1ccc(CN2CCN(c3cccc(C(F)(F)F)c3)CC2)cc1,AC50,[8],24.8 µM (active)
COC(=O)C1=NN(C(=O)c2cccc(Cl)c2)C(O)(C(C)(C)C)C1 (centres undefined),IC50,[9],> 79.4 µM (inactive)
same,IC50,[10],> 79.4 µM (inactive)
same,IC50,[11],> 79.4 µM (inactive)
Cc1ccc2nc(N3C(=O)C(O)=C(C(=O)c4ccco4)C3c3ccc(C)o3)sc2c1 (centres undefined),EC50,[12],26 µM (active)
same,EC50,[13],9.58 µM (active)
same,EC50,[14],> 180 µM (inactive)
same,EC50,[15],67.5 µM (active)
same,IC50,[16],30 µM (active)
same,EC50,[17],0.071 µM (active)
same,IC50,[18],14 µM (inactive)
Cc1ccc(S(=O)(=O)NCc2ccc(C(=O)NCCCN(Cc3ccccc3)C(C)C)cc2)cc1,IC50,[19],> 32 µM (inactive)
same,EC50,[20],> 32 µM (inactive)
same,EC50,[21],> 20 µM (inactive)
same,IC50,[22],> 32 µM (inactive)
same,EC50,Mu-type opioid receptor [23],> 32 µM (inactive)
same,EC50,[24],> 32 µM (inactive)
same,IC50,Mu-type opioid receptor [25],> 32 µM (inactive)
same,IC50,[26],> 20 µM (inactive)
CC(C)(C)CCN1CCC[C@H](NC(=O)COc2ccc(F)cc2Cl)C1,EC50,[27],2.4 µM (active)
